Here are results for 4 compounds from patent publication US20080098491A1, “MOUSE MODELS TO STUDY CACHEXIA” (ZOLTAN LABORATORIES LLC, priority 2006, published 2008).

Assay [1] relates to B16 mouse melanoma. Description: B16 mouse melanoma model, s.c. commercial PALP, s.c. plus topical PALP, or TF (Example 4, Experiment 2). In kind it is in vivo. As to conditions: TF 16-mg/kg s.c.; for Body weight (total weight minus tumor weight) / Total weight / Tumor weight: days 11-18 daily: commercial PALP 60-mg/kg s.c., topical cream 4-mg commercial PALP/g. An excerpt:
(§1) The B16 mouse melanoma and MXT mouse mammary tumors were developed in first generation hybrid BDF1 (C57 B1 female×DBA/2 male) adult female mice kept at specified pathogen free (SPF) hygienic level. These models were chosen for these experiments because these mice have the complete immune system, and both tumors grow very rapidly. To develop the tumors, B16 and MXT tumor tissue fragments of about 0.1-cm^3 were surgically implanted subcutaneously into the intrascapular region to develop the tumors. Each tumor fragment contained about 1-1.5×10^6 cells. The animals were kept in macrolon cages on ventilated rack at 22-24° C. (50-60% humidity) with lighting regimen of 12/12 h light/dark. The animals had free access to tap water and were fed with sterilized standard diet (Charles River VRF1, Germany) ad libitum. The animals were taken care of according to the “Guiding Principle for the care and use of Animals” based upon the Helsinki declaration and they were approved by the local ethical committee.
(§2) In case of both tumor models the tumor size was usually in the range of 0.2 to 0.5-g when treatments started 7-11 days after tumor implantation; the mice were selected so that in the same treatment group the difference in tumor size was no greater than 0.1 gram. In some experiments, the test proteins were suspended in physiological saline and injected in 50-μl volume subcutaneously in the vicinity of tumor (within 1-cm of tumor margin). In other experiments, the test proteins were dispersed in Vaselinum cholesteratum and used topically; 150-mg cream was applied on the tumor and the vicinity of tumor area (with about 0.5-cm of the tumor margin). The tumor volume was determined by using calipers; this technique is well known to one having ordinary skill in the art. Tumor volume was calculated according to the generally accepted formula: V=a^2×b×7r/6, where “a” and “b” mean the shortest and longest diameter, respectively, of the measured tumor.
In this model, either highly purified PALP or commercial PALP was subcutaneously injected to reverse body weight loss in the rapidly growing B16 melanoma model. Two separate experiments were performed to validate the effects of highly purified PALP (Experiment 1) and commercial PALP (Experiment 2). For both experiments, the B16 mouse melanoma model was developed as described in Example 3. The data presented in TABLE 1 (for Experiment 1) and TABLE 2 (for Experiment 2) show the changes in total weight, tumor weight, and body weight (total weight minus tumor weight). In each experimental group all mice survived until the conclusion of the experiment.
Experiment 2. In this experiment, the first group of animals remained untreated for the entire observation period. In the second group, from day 11 through day 18 after implantation of tumor pieces, the animals were treated daily with 60-mg/kg of commercial PALP via s.c. administration (seven treatments). In the third group, from day 11 through day 18 after implantation of tumor pieces, the animals were simultaneously administered 60-mg/kg of commercial PALP via s.c injection and treated topically with 150-mg of cream containing 4-mg commercial PALP in 1-g of Vaselinum cholesteratum (seven treatments). Topical treatment involved spreading the cream on both the tumor and surrounding skin area. In the fourth group, from day 11 through day 18 after implantation of tumor pieces, the animals were treated with 16-mg/kg of commercial partially iron-saturated TF via subcutaneous administration (seven treatments). Each group included seven mice.

In assay [2] the test system is MXT mouse mammary tumor. Description: Cisplatin-treated MXT mouse mammary tumor model, PALP and TF (Example 9, Experiment 1). In kind it is in vivo. As to conditions: co-treated with cisplatin 3-mg/kg i.p.
Text: as §1, §2
Experiment 1. The mouse MXT mammary tumor was developed as described in Example 3. In the first group, animals remained untreated during the whole observation period. In the second group, starting on the 7th day after tumor implantation, mice were intraperitoneally (i.p.) administered 3-mg per 1-kg total weight of cisplatin 7-times every second day. In the third group, starting on the 7th day after tumor implantation, mice were simultaneously administered 3-mg per 1-kg of cisplatin i.p. and 16-mg per 1-kg of purified PALP s.c. In the fourth group, starting on the 7th day after tumor implantation, mice were simultaneously administered 3-mg per 1-kg of cisplatin i.p. and 60-mg per 1-kg of commercial PALP s.c. In the fifth group, starting on the 7th day after tumor implantation, mice were simultaneously administered 3-mg per 1-kg of cisplatin i.p. and 14-mg per 1-kg of commercial TF (T 3309 in the Sigma catalog) s.c. Each treatment was performed 7-times on every second day. Each group included 7 animals. The mean values for total weight, tumor weight and body weight (the difference between total and tumor weight) are shown in TABLE 6.

In the next assay the test system is fibroblast proliferation. Description: Fibroblast proliferation in vitro, effect of pre-heating the protein. The assay is classed as cell-based. The procedure:
It is reasonable to expect that pre-heating of PALP at 65-75° C. prior to its use may also enhance its anti-cachectic effect. Thus, a step of heat-activation of both commercial and highly purified PALP preparation may be included prior to their applications.
Thus, pre-heating of TF-containing compositions to enhance the effects of other components, such as PALP and AT will unlikely to alter the ability of TF to reduce tumor- and chemotherapy-induced body weight loss.
Therefore, a step of heat-activation of AT may be included during the preparation of active compositions.

The subject of assay [3] is MXT mouse mammary tumor. Put plainly: Cisplatin-treated MXT mouse mammary tumor model, CCDTHT (Example 10). The assay is classed as in vivo. As to conditions: with cisplatin 3-mg/kg i.p.
Text: as §1, §2
The mouse MXT mammary tumor was developed as described in Example 3. In the first group, animals remained untreated during the whole observation period. In the second group, starting on the 7th day after tumor implantation, mice were administered 3-mg per 1-kg of cisplatin i.p. 9-times every second day. In the third group, starting on the 7th day after tumor implantation, mice were simultaneously administered 3-mg per 1-kg of cisplatin i.p. and 4.6-mg per 1-kg of CCDTHT s.c. In the fourth group, starting on the 7th day after tumor implantation, mice were simultaneously administered 3-mg per 1-kg of cisplatin i.p. as well as 4.6-mg per 1-kg of CCDTHT s.c. and 14-mg per 1-kg of highly purified PALP s.c. Each treatment was performed 9-times on every second day. Each group included 7 animals. The mean values for total weight, tumor weight and body weight (the difference between total and tumor weight) are shown in TABLE 8.

The subject of assay [4] is B16 mouse melanoma. Description: B16 mouse melanoma model, s.c. CCDTHT (Example 8). As to conditions: for Body weight (total weight minus tumor weight) / Total weight / Tumor weight: CCDTHT 4.5-mg/kg s.c. daily from day 11 until day 22. The assay is classed as in vivo.
Text: as §1, §2
In this model, CCDTHT, a chemically synthesized compound is used to prevent or reverse tumor-induced body weight loss. The B16 mouse tumors were developed as described in Example 3. Two experimental groups each involving five mice were used. In the first group, mice remained untreated during the entire observation period. In the second group, starting on the 11th day after tumor implantation, mice were s.c. administered 4.5-mg/kg CCDTHT; then the treatments were repeated daily until day 22. The mean values for total weight, tumor weight and body weight (the difference between total and tumor weight) are shown in TABLE 5.

Assay [5] concerns MXT mouse mammary tumor. Put plainly: Cisplatin-treated MXT mouse mammary tumor model, purified PALP, AT, holo-TF, apo-TF (Example 9, Experiment 2). The assay is classed as in vivo. As to conditions: 12-mg/kg s.c. with cisplatin 3-mg/kg i.p.
Text: as §1, §2
Experiment 2. The commercial PALP used in this model for Exp. 1 was composed of PALP (˜10%), TF (˜12%), AT (˜30%), albumin (˜35%) and the degradation products of TF (˜13%). […] In this experiment, it was determined whether the other two major proteins, i.e. TF and AT, present in the commercial PALP preparation in addition to PALP, also influence cisplatin-induced loss of body weight or not. The mouse MXT mammary tumor was developed as described in Example 3. In the first group, animals remained untreated during the whole observation period. In the second group, starting on the 7th day after tumor implantation, mice were administered 3-mg per 1-kg of cisplatin i.p. 6-times every second day. In the third group, starting on the 7th day after tumor implantation, mice were simultaneously administered 3-mg per 1-kg of cisplatin i.p. and 12-mg per 1-kg of purified PALP s.c. In the fourth group, starting on the 7th day after tumor implantation, mice were simultaneously administered 3-mg per 1-kg of cisplatin i.p. and 12-mg per 1-kg of highly purified AT s.c. In the fifth group, starting on the 7th day after tumor implantation, mice were simultaneously administered 3-mg per 1-kg of cisplatin i.p. and 12-mg per 1-kg of commercial holo-TF (h-TF, T 0665 in the Sigma catalog) s.c. In the sixth group, starting on the 7th day after tumor implantation, mice were simultaneously administered 3-mg per 1-kg of cisplatin i.p. and 12-mg per 1-kg of commercial apo-TF (a-TF, T 2036 in the Sigma catalog) s.c. Holo-TF contained 1,100-1,600 μg iron per gram protein while apo-TF was essentially iron-free. Each treatment with the proteins was also performed 6-times on every second day simultaneously with the cisplatin treatment. Each group included 7 animals. The mean values for total weight, tumor weight and body weight (the difference between total and tumor weight) are shown in gram in TABLE 7.

Where [6] appears, read: day 11 after tumor transplantation.
[7] abbreviates: day 14 after tumor transplantation.
The mark [8] stands for this setting: day 16 after tumor transplantation.
Where [9] appears, read: day 18 after tumor transplantation.
The mark [10] stands for this setting: day 21 after tumor transplantation.
[11] abbreviates: day 23 after tumor transplantation.
Where [12] appears, read: day 23, CCDTHT 4.5-mg/kg s.c. daily.

Regarding “TF s.c.: commercial partially iron-saturated human transferrin (Sigma T 3309)”, in the assay on B16 mouse melanoma [1] (commercial PALP 60-mg/kg s.c.), the “Effect on body weight loss” value was “stabilized body weights but did not promote weight gain”. Also, the “Body weight (total weight minus tumor weight)” value is 22.4 gram in the assay on B16 mouse melanoma [1] (setting [6]); 23.5 gram with B16 mouse melanoma [1] (setting [7]); 23.5 gram in the assay on B16 mouse melanoma [1] (setting [8]); 23.6 gram in the assay with B16 mouse melanoma [1] (setting [9]); 23.9 gram with B16 mouse melanoma [1] (setting [10]); 23.9 gram in the assay on B16 mouse melanoma [1] (setting [11]). Further, the Total weight is 22.9 gram in the assay on B16 mouse melanoma [1] (setting [6]); 24.2 gram with B16 mouse melanoma [1] (setting [7]); 24.3 gram with B16 mouse melanoma [1] (setting [8]); 25.0 gram in the assay with B16 mouse melanoma [1] (setting [9]); 26.1 gram in the assay with B16 mouse melanoma [1] (setting [10]); 26.6 gram in the assay with B16 mouse melanoma [1] (setting [11]). The Tumor weight in the assay with B16 mouse melanoma [1] (setting [6]) worked out at 0.5 gram; in the assay with B16 mouse melanoma [1] (setting [7]), 0.7 gram; in the assay with B16 mouse melanoma [1] (setting [8]) it was 0.8 gram; in the assay with B16 mouse melanoma [1] (setting [9]), 1.4 gram; in the assay on B16 mouse melanoma [1] (setting [10]), 2.2 gram; in the assay on B16 mouse melanoma [1] (setting [11]) it was 2.7 gram. In addition, the “Effect on body weight loss induced by the tumor and cisplatin” value with MXT mouse mammary tumor [2] was “partially reversed body weight loss”. Further, the “Effect of pre-heating on the stimulatory effects on fibroblast proliferation” value in the assay on fibroblast proliferation is “not altered by pre-heating it at up to 75 °C for 30 min”.
Take `CC[N+](C)(CC)CCOCc1ccc2sc3ccccc3c(=O)c2c1.[I-]` [CCDTHT, N,N-diethyl-N-methyl-2-[(9-oxo-9H-thioxanthen-2-yl)methoxy]-ethanaminium iodide]: the “Effect on cisplatin-induced body weight loss” value in the assay with MXT mouse mammary tumor [3] is on record as “effectively prevents cisplatin-induced body weight loss”. Moreover, in the assay with B16 mouse melanoma [4] (CCDTHT 4.5-mg/kg s.c. daily), the “Effect on body weight” value was “modest weight gain”. For the same compound, the “Body weight (total weight minus tumor weight)” value with B16 mouse melanoma [4] (setting [6]) is reported as 22.4 g; in the assay on B16 mouse melanoma [4] (setting [7]) it was 22.9 g; in the assay with B16 mouse melanoma [4] (setting [8]), 23.2 g; in the assay on B16 mouse melanoma [4] (setting [9]), 23.4 g; in the assay with B16 mouse melanoma [4] (setting [10]) it was 23.6 g; with B16 mouse melanoma [4] (setting [11]) it was 23.8 g. The Total weight is recorded as 23.0 g in the assay on B16 mouse melanoma [4] (setting [6]); 23.7 g with B16 mouse melanoma [4] (setting [7]); 24.2 g in the assay with B16 mouse melanoma [4] (setting [8]); 24.7 g with B16 mouse melanoma [4] (setting [9]); 25.4 g in the assay on B16 mouse melanoma [4] (setting [10]); 25.9 g with B16 mouse melanoma [4] (setting [11]). Moreover, the Tumor weight was found to be 0.6 g in the assay on B16 mouse melanoma [4] (setting [6]); 0.8 g in the assay with B16 mouse melanoma [4] (setting [7]); 1.0 g with B16 mouse melanoma [4] (setting [8]); 1.3 g in the assay with B16 mouse melanoma [4] (setting [9]); 1.8 g with B16 mouse melanoma [4] (setting [10]); 2.1 g in the assay with B16 mouse melanoma [4] (setting [11]). Also, in the assay with B16 mouse melanoma [4] (setting [12]), the “Body weight difference to control mice” value is on record as “about 10%”. Further, in the assay with B16 mouse melanoma [4] (setting [12]), the “Body weight heavier than control mice” value was determined as 2.6 grams.
As to “apo-TF: commercial apo-transferrin (Sigma T 2036), essentially iron-free”, the “Effect on cisplatin-induced body weight loss” value in the assay with MXT mouse mammary tumor [5] is listed as “partially reversed cisplatin-induced body weight loss”.
Still for that read-out and setting: the entry for “holo-TF: commercial holo-transferrin (Sigma T 0665), 1,100-1,600 μg iron per gram protein” is “partially reversed cisplatin-induced body weight loss”.
